Laboratory results published in patent US12637477B2, “Synthesis process of amide derivatives of hydroxypenicillanic acid” (priority 2020, dated 2026).

Test system: CHO-S cells
Test: Viable cell count of CHO-S cells after 24 hours incubation (anticancer activity)
Assay type: cell-based, hamster
Protocol: The two compounds, by means of a standard assay, were tested on mammalian (hamster) cancer cells to evaluate possible anticancer activity.
Compound (IIB) was used at concentrations of 25 μM and 50 μM, while Peny compound was tested at concentrations up to 400 μM.
Mammalian cancer cells were then incubated for 24 hours.
Precisely, CHO-S cells were cultured in 2 mL of DMEM (Dulbecco's Modified Eagle Medium) (10% FBS, 6% Glutamax) in a 24-well plate at a density of 200×10^3 cells/per well and subsequently incubated at 37° C. in a controlled atmosphere (5% CO2) under shaking. The following day, cells were counted by means of the Countess II instrument (Thermofisher Scientific) (an automated cell counter). They were then treated with Purymycin (positive control), Peny, (IIB) compounds, and in the absence of any product (negative control), at the concentrations shown in FIG. 37.
Cell counts were performed after 24 hours to determine the number of viable cells.

Row | Structure (SMILES) | cytotoxicity at 50 µM (50 μM, read-out: reduction of viable cells) [%] | anticancer effect (tested at concentrations up to 400 μM)
1 | CC(=O)OC[C@H]1O[C@@H](OCc2cn(CCCNC(=O)[C@@H]3N4C(=O)N[C@H](C(=O)O)[C@H]4SC3(C)C)nn2)[C@H](OC(C)=O)[C@@H](OC(C)=O)[C@@H]1OC(C)=O [Compound (IIB), (3S, 7R, 7aR)-2,2-dimethyl-5-oxo-3-((3-(4-((((2R, 3R, 4S, 5R, 6R)-3,4,5-triacetoxy-6-(acetoxymethyl)tetrahydro-2H-pyran-2-yl)oxy)methyl)-1H-1,2,3-triazol-1-yl)propyl)carbamoyl)hexahydroimidazo[5,1-b]thiazole-7-carboxylic acid] | ~50 | –
2 | CC(=O)OC[C@@H]1OC(n2cc(COC(=O)[C@@H]3N4C(=O)[C@@H](NC(=O)OC(C)(C)C)[C@H]4SC3(C)C)nn2)[C@@H](OC(C)=O)[C@H](OC(C)=O)[C@H]1OC(C)=O (some centres unmarked) [Penγ] | – | not associated
